Data on 17 compounds can be found in patent US5606037A, “Processes antineoplastic heteronaphthoquinones” (BioChem Pharma Inc., priority 1995, dated 1997).

Holding throughout (assay type): cell-based, Human
In test [1] the test system is SKOV3 (Ovarian adenocarcinoma). In words: In vitro cytotoxicity, microculture tetrazolium (MTT) assay, SKOV3. Particulars: SKOV3 ovarian adenocarcinoma, 48 h with compound, further 48 h, MTT, Table 1. Here is the method:
(§1) The microculture tetrazolium assay was used to test in vitro cytotoxicity. This assay is described in Plumb, J. A. et al., 1989 Cancer Research 49, 4435-4440, which is herein incorporated by reference. The cytotoxicity of compounds towards tumor cells is measured in vitro using the assay. This assay method is based upon the ability of live, but not dead cells to reduce the yellow water soluble dye 3-(4,5-dimethylthiazol-2-yl)-2,5-diphenyltetrazolium bromide (MTT) to its water insoluble purple formazan product.
(§2) Human Tumor Cell lines, used were:
SKOV3 (Ovarian adenocarcinoma)--provided by Dr. V. Ling, Ontario Cancer Institute.
(§3) The cells were maintained in exponential growth in culture in minimal essential media (MEM) supplemented with non-essential amino acids, and containing 15% (v/v) fetal. bovine serum, 5 mM L-glutamine, 1 mM sodium pyruvate, and 0.1 U/ml insulin. All cell lines were grown at 37° C. in an atmosphere of 5% CO2 in air.
(§4) MTT: 2 mg/ml in phosphate buffered saline (stable at 4° C. in dark for 1 week).
(§5) Sorensen's buffer: 0.1M glycine/NaOH, pH 10.5, containing 0.1M NaCl.
(§6) Test compounds: 20 mM in DMSO and diluted to a final concentration of 200 μM in culture medium before use.
(§7) For each assay, doxorubicin is included as an inter-assay standard. This allows us to monitor the behaviour of the assay in general, and in particular, to check that the SKVLB line has maintained its resistant phenotype.
(§8) The assays are carried out in 96-well (8 well×12 well) microtiter plates. Serial dilutions of the compound are tested along the length of the plate. A 1:3 serial dilution of compound in culture medium covers a concentration range from 100 μM to 1.7 nM. Each concentration of compound is tested in quadruplet, allowing two compounds to be tested per plate. Wells containing no cells (blank) and cells with no test compound (control) are included on each plate.
(§9) Cells are plated out in 100 μl of culture medium in the microtiter plates at a density of around 1,500-4,000 cells per well. The plates are incubated overnight to allow the cells to become adherent after which the test compound is added (100 μl of appropriate dilution per well). The cells are incubated with test compound at 37° C. for 48 h after which the compound is replaced with fresh medium. After a further 48 h incubation at 37° C., 50 μl of MTT solution (2 mg/ml) is added to each well. The plates are incubated in the dark for 4 h at 37° C. after which the medium is removed. The MTT formazan product is extracted from the cells by the addition of 200 μl DMSO followed by 50 μl of Sorensen's buffer. The plates are shaken briefly and the absorbance at 570 nm is read using a Molecular Devices UV max plate reader. Curves are fit to the MTT assay data using a four parameter logistic equation, and the data are normalized to fit a 0% to 100% survival scale.

The subject of test [2] is SKVLB (Ovarian; multidrug resistant). In words: In vitro cytotoxicity, microculture tetrazolium (MTT) assay, SKVLB. Particulars: SKVLB multidrug resistant ovarian, 48 h with compound, further 48 h, MTT, Table 1. The protocol: as §1, §2
SKVLB (Ovarian; multidrug resistant)--Dr. V. Ling, Ontario Cancer Institute.
as §3, §4, §5, §6, §7, §8, §9

The subject of another test is Lox (Melanoma). In words: In vitro cytotoxicity, microculture tetrazolium (MTT) assay, LOX. Particulars: Homo sapiens, 48 h with compound, further 48 h, Table 1. Here is the method: as §1, §2
Lox (Melanoma)--Southern Research Institute.
as §3, §4, §5, §6, §7, §8, §9

For test [3], the system named is HT 29 (Colon adenocarcinoma). In words: In vitro cytotoxicity, microculture tetrazolium (MTT) assay, HT29. Conditions: further 48 h, Table 1. The protocol: as §1, §2
HT 29 (Colon adenocarcinoma) ATCC catalog #HTB-38.
as §3, §4, §5, §6, §7, §8, §9

Test [4] relates to T47D (Ductal carcinoma of breast). In words: In vitro cytotoxicity, microculture tetrazolium (MTT) assay, T47D. Particulars: 48 h with compound, further 48 h, Table 1. Here is the method:
as §1, §2
T47D (Ductal carcinoma of breast)--ATCC catalog #HTB-133.
as §3, §4, §5, §6, §7, §8, §9

[5] abbreviates: Homo sapiens, HT-29, 48 h with compound.

Broadly, the IC50 is the midpoint of a concentration-inhibition curve. In the case of `C[C@@H]1O[C@@H](OC2OC(C#N)CC3=C2C(=O)c2ccccc2C3=O)C[C@H](NC(=O)C(F)(F)F)[C@@H]1O` (mixture of isomers) [BCH1688, (1'-S, 1-R, 3-S) and (1'-S, 1-S, 3-R)-3-cyano-1-[2',3',6'-trideoxy-3'-trifluoroacetamido-4'-hydroxy-L-lyxohexopyranose)-5,10-dioxo-3,4,5,10-tetrahydronaphtho-[2,3C]pyran-3-yl], the IC50 in test [1] (Homo sapiens, SK-OV-3) is 634 nM; in test [2] (Homo sapiens) it was 2770 nM; with Lox (Melanoma), 402 nM; in test [3] (setting [5]), 1350 nM.
Turning to `CC(=O)O[C@@H]1[C@H](C)O[C@@H](OC2OC(C(C)=O)CC3=C2C(=O)c2ccccc2C3=O)C[C@@H]1OC(C)=O` (mixture of isomers) [BCH2118, (1'S,1S,3R) and (1'S,1R,3S)-methyl-(1-[dideoxy-2',6'-diacetoxy-3',4'-L-lyxohexopyranose]-5,10-dioxo-3,4,5,10-tetrahydronaphtho-[2,3-c]-pyran-3-yl) ketone], the IC50 in test [1] (Homo sapiens, SK-OV-3) is 120 nM; in test [4] (Homo sapiens), 244 nM; in test [3] (setting [5]), 203 nM.
As for `CC[C@H]1CC2=C(C(=O)c3ccccc3C2=O)[C@H](NC(C)=O)O1` (relative stereo) [BCH2027, Trans-5,10-dioxo-1-acetamido-3-ethyl-3,4,5,10-tetrahydro-1H-naphtho-[2,3-c]-pyran], the IC50 in test [1] (Homo sapiens, SK-OV-3) was 7010 nM; in test [2] (Homo sapiens) it was 29000 nM; in test [3] (setting [5]) it was 15400 nM.
As for `COC(=O)C1(C(=O)OC)CC2=C(CO1)C(=O)c1ccccc1C2=O` [BCH1665, 3,3-bis-(methoxycarbonyl)-5,10-dioxo-3,4,5,10-tetrahydro-1H-naphtho-[2,3-c]-pyran], the IC50 in test [1] (Homo sapiens, SK-OV-3) stood at 25400 nM; in test [2] (Homo sapiens), 28900 nM; in the test with Lox (Melanoma) it was 11500 nM; in test [3] (setting [5]) it was 60400 nM.
As for `CC(=O)O[C@H]1[C@@H](I)[C@H](O[C@H]2O[C@H](C(C)=O)CC3=C2C(=O)c2ccccc2C3=O)O[C@@H](C)[C@H]1OC(C)=O` [BCH1666, (1'S,1R,3S)-methyl-(1-[2',6'-dideoxy-3'-4'-diacetoxy-2'-iodo-L-lyxohexopyranose]-5,10-dioxo-3,4,5,10-tetrahydronaphtho[2,3-c]-pyran-3-yl) ketone], the concentration for half-maximal inhibition (IC50) in test [1] (Homo sapiens, SK-OV-3) came to 272 nM; in test [2] (Homo sapiens), 205 nM; in the test on Lox (Melanoma), 125 nM; in test [3] (setting [5]), 78.3 nM.
For `CC(=O)O[C@H]1[C@@H](I)[C@H](O[C@@H]2O[C@@H](C(C)=O)CC3=C2C(=O)c2ccccc2C3=O)O[C@@H](C)[C@H]1OC(C)=O` [BCH1667, (1'S,1S,3R)-methyl-(1-[2',6'-dideoxy-3',4'-diacetoxy-2'-iodo-L-lyxohexopyranose]-5,10-dioxo-3,4,5,10-tetrahydronaphtho[2,3-c]-pyran-3-yl) ketone], the IC50 is 12.2 nM in test [1] (Homo sapiens, SK-OV-3); 89.3 nM in test [2] (Homo sapiens); 13.3 nM in the test with Lox (Melanoma); 1.6 nM in test [3] (setting [5]).
With `COC[C@@H]1CC2=C(C(=O)c3ccccc3C2=O)[C@@H](O[C@H]2C[C@H](NC(=O)C(F)(F)F)[C@H](O)[C@H](C)O2)O1` [BCH1691, (1'S, 1R, 3S)-5,10-dioxo-3-methoxymethyl-1-(2',3',6'-trideoxy-3'-trifluoroacetamido-L-lyxohexopyranose)-3,4,5,10-tetrahydro-1H-naphtho-[2,3-c]-pyran], the IC50 in test [1] (Homo sapiens, SK-OV-3) came to 8830 nM; in test [2] (Homo sapiens), 18500 nM; in the test with Lox (Melanoma), 4490 nM; in test [3] (setting [5]), 7160 nM.
On to `CC(=O)[C@]1(C)CC2=C(C(=O)c3ccccc3C2=O)[C@H](O[C@H]2C[C@H](NC(=O)C(F)(F)F)[C@H](O)[C@H](C)O2)O1` [BCH2090, (1'S,1S,3S)-1-(3'-trifluoroacetamido-2',3',6'-trideoxy-lyxo-L-hexopyranose)-3-acetyl-3-methyl-3,4,5,10-tetrahydro-5,10-dioxo-1H-naphtho-[2,3-c]pyran], for which the half-inhibitory concentration (IC50) in test [1] (Homo sapiens, SK-OV-3) was determined as 11000 nM; in test [2] (Homo sapiens), 36000 nM; in test [3] (setting [5]), 10400 nM.
As to `CC(C)OC(=O)[C@H]1CC2=C(C(=O)c3ccccc3C2=O)[C@H](O[C@H]2C[C@H](NC(=O)C(F)(F)F)[C@H](O)[C@H](C)O2)O1` [BCH2121], the IC50 was 210 nM in test [1] (Homo sapiens, SK-OV-3); 1300 nM in test [2] (Homo sapiens); 340 nM in the test on Lox (Melanoma); 340 nM in test [3] (setting [5]).
For `CC(C)OC(=O)[C@@H]1CC2=C(C(=O)c3ccccc3C2=O)[C@@H](O[C@H]2C[C@H](NC(=O)C(F)(F)F)[C@H](O)[C@H](C)O2)O1` [BCH2122, (1'S, 1R, 3S)-5,10-dioxo-3-isopropoxycarbonyl-1-(2',3',6'-trideoxy-3'-trifluoroacetamido-L-lyxohexopyranose)-3,4,5,10-tetrahydro-1H-naphtho-[2,3-c]-pyran], the IC50 came out at 370 nM in test [1] (Homo sapiens, SK-OV-3); 2000 nM in test [2] (Homo sapiens); 730 nM with Lox (Melanoma); 640 nM in test [3] (setting [5]).
With `CC(=O)[C@H]1CC2=C(C(=O)c3ccccc3C2=O)[C@H](O[C@H]2C[C@H](NC(=O)C(F)(F)F)[C@H](O)[C@H](C)O2)S1` [BCH2127, (1'S, 1R, 3R)-1-(3'-trifluoroacetamido-2',3',6'-trideoxy-L-lyxohexopyranose)-3-acetyl-5,10-dioxo-3,4,5,10-tetrahydro-1H-naphtho-[2,3-c]-thiopyran], the half-inhibitory concentration (IC50) in test [1] (Homo sapiens, SK-OV-3) was found to be 350 nM; in test [2] (Homo sapiens), 4100 nM; in the test on Lox (Melanoma), 2000 nM; in test [3] (setting [5]), 2700 nM.
As to `COC(=O)[C@@H]1CC2=C(C(=O)c3ccccc3C2=O)[C@@H](O[C@H]2C[C@H](NC(=O)C(F)(F)F)[C@H](O)[C@H](C)O2)O1` [BCH2128, (1'S, 1R, 3S)-5,10-dioxo-3-methoxycarbonyl-1-(2',3',6'-trideoxy-3'-trifluoroacetamido-L-lyxohexopyranose)-3,4,5,10-tetrahydro-1H-naphtho-[2,3-c]-pyrano], the IC50 amounted to 1700 nM in test [1] (Homo sapiens, SK-OV-3); 5800 nM in test [2] (Homo sapiens); 1400 nM in the test with Lox (Melanoma); 1600 nM in test [3] (setting [5]).
As for `CC(=O)C1CC2=C(C(=O)c3ccccc3C2=O)C(OC2CC(NC(=O)C(F)(F)F)C(O)C(C)O2)O1` [BCH2145, (1S, 3R)-1-(2',3',6'-trideoxy-3'-trifluoroacetamido-4'-hydroxy-1,5-dihydro-L-lyxohexopyranose-2-yl)-5,10-dioxo-3,4,5,10-tetrahydro-1H-naphtho-[2,3-c] pyran], the IC50 in test [4] was found to be 1780 nM.
Consider `COC1OC(C(=O)NCCCN2CCCC2=O)=CC2=C1C(=O)c1ccccc1C2=O` (centres unmarked) [BCH2166, 1-methoxy-3-(3-N-pyrrolidinomylpropylaminocarbonyl)-5,10-dioxo-5,10-dihydro-1H-naphtho-[2,3-c]-pyran], for which the results for the IC50 in test [1], in test [4] and in test [3] (48 h with compound) were 140 to 181 nM, 237 nM and 443 to 1200 nM, respectively.
As to `COC1OC(C(=O)NCCN2CCOCC2)=CC2=C1C(=O)c1ccccc1C2=O` (centres unmarked) [BCH2170, 1-methoxy-3-[2-(N-morpholino)ethylaminocarbonyl]-5,10-dioxo-5,10-dihydro-1H-naphtho-[2,3-c]-pyran], the IC50 in test [1] (Homo sapiens, SK-OV-3) worked out at 259 nM; in test [2] (Homo sapiens) it was 394 nM; in test [3] (setting [5]), 244 nM.
With `COC1OC(C(=O)NCCN2CCOCC2)=CC2=C1C(=O)c1ccccc1C2=O` (centres unmarked) [BCH2171, 1-methoxy-3-[2-(N-morpholine)ethylaminocarbonyl]-5,10-dioxo-5,10-dihydro-1H-naphtho-[2,3-c]-pyran], the IC50 was 422 to 440 nM in test [2] and 398 nM in test [4].
Turning to `COC(=O)C1=CC2=C(CO1)C(=O)c1ccccc1C2=O` [BCH2830, 3-methoxy carbonyl-5,10-dioxo-5,10-dihydro-1H-naphtho-[2,3-c]-pyran], the concentration for half-maximal inhibition (IC50) was 7120 nM in test [1] (Homo sapiens, SK-OV-3) and 12500 nM in test [3] (setting [5]).
